Active and inactive are the calls of the source.
What was measured:
Assay type in all cases: functional, cell-based
Malme-3M = experiment: Cytotoxicity against human MALME-3M cells at 10 ug/mL after 2 days by XTT assay
MOLT-4 = experiment: Cytotoxicity against human MOLT4 cells at 10 ug/mL after 2 days by XTT assay
NCI-H460 = experiment: Cytotoxicity against human H460 cells at 10 ug/mL after 2 days by XTT assay
LOX = experiment: Cytotoxicity against human LOX cells at 10 ug/mL after 2 days by XTT assay
A549 = experiment: Cytotoxicity against human A549 cells at 10 ug/mL after 2 days by XTT assay
K562 = experiment: Cytotoxicity against human K562 cells at 10 ug/mL after 2 days by XTT assay
OVACR3 = experiment: Cytotoxicity against […] at 10 ug/mL after 2 days by XTT assay
MCF7 = experiment: Cytotoxicity against human MCF7 cells at 10 ug/mL after 2 days by XTT assay
COLO 205 = experiment: Cytotoxicity against human COLO205 cells at 10 ug/mL after 2 days by XTT assay
SNB-19 = experiment: Cytotoxicity against human SNB19 cells at 10 ug/mL after 2 days by XTT assay

Measured: Activity

CO[C@@H]1[C@@H](OC)[C@H](O[C@H]2C[C@H]3C[C@@H]([C@H]4C[C@@H]4C)OC(=O)C[C@@H]4O[C@@H](C[C@H](O[C@@H]5OC[C@@H](OC)[C@H](OC)[C@H]5OC)[C@H]4C)C[C@@H]([C@H]4C[C@@H]4C)OC(=O)C[C@H](O3)[C@@H]2C)OC[C@H]1O
inactive: all assays above

Source: ChEMBL document CHEMBL1150634, “New dimeric macrolide glycosides from the marine sponge Myriastra clavosa” (J Nat Prod, 2002)
